This is an account of results in patent US20230293518A1 (Edgewise Therapeutics, Inc., priority 2020, published 2023).

SMILES strings stand for the structures.

The target of the assay is skeletal myofibrils (myosin ATPase). The assay is described as follows: Skeletal Myofibril ATPase Assay. The format is biochemical. To be noted: Table 4C. The method in brief:
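Skeletal myofibril ATPase activity was measured via PK-LDH coupling, following NADH loss at 340 nm every 1.5-2 min for 45 min in PIPES/CaCl2/EGTA pCa buffer, pH 7.0. Max−Min slopes were normalised to 1% DMSO vehicle (100%) and fit to a four-parameter logistic (bottom ≥0) for IC50.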
Take `COc1ccc(-c2ccc(=O)n(CC(=O)NCc3ccccc3Cl)n2)cc1` [IIIb-1, N-(2-chlorobenzyl)-2-(3-(4-methoxyphenyl)-6-oxopyridazin-1(6H)-yl)acetamide]: the IC50 (in general, the midpoint of a concentration-inhibition curve) is under 10 µM.

`COc1ccc(-c2ccc(=O)n(CC(=O)Nc3cccc4[nH]ccc34)n2)c(F)c1` [IIIb-2, 2-(3-(2-fluoro-4-methoxyphenyl)-6-oxopyridazin-1(6H)-yl)-N-(1H-indol-4-yl)acetamide] gave an IC50 of under 10 µM.

The compound `COc1ccc(-c2ccc(=O)n(CC(=O)Nc3cccc4[nH]ccc34)n2)cc1` [IIIb-3, N-(1H-indol-4-yl)-2-(3-(4-methoxyphenyl)-6-oxopyridazin-1(6H)-yl)acetamide] came in with an IC50 of under 10 µM.

The compound `COc1ccc(-c2ccc(=O)n(CC(=O)Nc3cccc4c3ccn4C)n2)cc1` [IIIb-4, 2-(3-(4-methoxyphenyl)-6-oxopyridazin-1(6H)-yl)-N-(1-methyl-1H-indol-4-yl)acetamide] returned an IC50 of under 10 µM.

`CC(C)c1cccc(NC(=O)Cn2nc(-c3ccc4c(c3)OCCCO4)ccc2=O)c1` [IIIb-5, 2-(3-(3,4-dihydro-2H-benzo[b][1,4]dioxepin-7-yl)-6-oxopyridazin-1(6H)-yl)-N-(3-isopropylphenyl)acetamide] returned an IC50 of under 10 µM.

Consider `O=C(Cn1nc(-c2ccc3c(c2)OCCO3)ccc1=O)Nc1ccccc1F` [IIIb-6, 2-(3-(2,3-dihydrobenzo[b][1,4]dioxin-6-yl)-6-oxopyridazin-1(6H)-yl)-N-(2-fluorophenyl)acetamide], for which the IC50 is under 10 µM.

For `COc1ccc(-c2ccc(=O)n(CC(=O)NCCC3=CCCCC3)n2)c(F)c1` [IIIb-7, N-(2-(cyclohex-1-en-1-yl)ethyl)-2-(3-(2-fluoro-4-methoxyphenyl)-6-oxopyridazin-1(6H)-yl)acetamide], the concentration for half-maximal inhibition (IC50) was under 10 µM.

Compound `COc1ccc(-c2ccc(=O)n(CC(=O)NC3Cc4ccccc4C3)n2)cc1` [IIIb-8, N-(2,3-dihydro-1H-inden-2-yl)-2-(3-(4-methoxyphenyl)-6-oxopyridazin-1(6H)-yl)acetamide] registered a half-maximal inhibitory concentration (IC50) of under 10 µM.

Consider `COc1ccc(-c2ccc(=O)n(CC(=O)NCCc3ccccc3)n2)c(F)c1` [IIIb-9, 2-(3-(2-fluoro-4-methoxyphenyl)-6-oxopyridazin-1(6H)-yl)-N-phenethylacetamide], for which the IC50 was under 10 µM.

`COc1ccc(-c2ccc(=O)n(CC(=O)Nc3cc(Cl)ccc3Cl)n2)cc1` [IIIb-10, N-(2,5-dichlorophenyl)-2-(3-(4-methoxyphenyl)-6-oxopyridazin-1(6H)-yl)acetamide]: the IC50 was under 10 µM.

The compound `COc1ccc(-c2ccc(=O)n(CC(=O)Nc3ccc(Cl)cc3Cl)n2)cc1` [IIIb-11, N-(2,4-dichlorophenyl)-2-(3-(4-methoxyphenyl)-6-oxopyridazin-1(6H)-yl)acetamide] had an IC50 of under 10 µM.

Take `COc1ccc(-c2ccc(=O)n(CC(=O)Nc3cc(Cl)ccc3Cl)n2)c(F)c1` [IIIb-13, N-(2,5-dichlorophenyl)-2-(3-(2-fluoro-4-methoxyphenyl)-6-oxopyridazin-1(6H)-yl)acetamide]: the IC50 was under 10 µM.

`COc1ccc(-c2ccc(=O)n(CC(=O)NCCC3=CCCCC3)n2)cc1` [IIIb-14, N-(2-(cyclohex-1-en-1-yl)ethyl)-2-(3-(4-methoxyphenyl)-6-oxopyridazin-1(6H)-yl)acetamide] returned an IC50 of under 10 µM.

In turn, `COc1ccc(-c2ccc(=O)n(CC(=O)Nc3ccc4c(c3)OCCO4)n2)c(F)c1` [IIIb-15, N-(2,3-dihydrobenzo[b][1,4]dioxin-6-yl)-2-(3-(2-fluoro-4-methoxyphenyl)-6-oxopyridazin-1(6H)-yl)acetamide] yielded an IC50 of under 10 µM.

As to `COc1ccc(-c2ccc(=O)n(CC(=O)Nc3ccc4c(c3)OCCO4)n2)cc1` [IIIb-16, N-(2,3-dihydrobenzo[b][1,4]dioxin-6-yl)-2-(3-(4-methoxyphenyl)-6-oxopyridazin-1(6H)-yl)acetamide], the IC50 is under 10 µM.

Turning to `COc1ccc(-c2ccc(=O)n(CC(=O)NC(C)C)n2)cc1` [IIIb-18, N-isopropyl-2-(3-(4-methoxyphenyl)-6-oxopyridazin-1(6H)-yl)acetamide], the IC50 lay within 10 to 100 µM.

`COc1ccc(-c2ccc(=O)n(CC(=O)NC(C)C)n2)c(F)c1` [IIIb-19, 2-(3-(2-fluoro-4-methoxyphenyl)-6-oxopyridazin-1(6H)-yl)-N-isopropylacetamide]: the half-maximal inhibitory concentration (IC50) was 10 to 100 µM.

As for `COc1ccc(-c2ccc(=O)n(CC(=O)NCc3ccccc3)n2)cc1` [IIIb-20, N-benzyl-2-(3-(4-methoxyphenyl)-6-oxopyridazin-1(6H)-yl)acetamide], the IC50 is 10 to 100 µM.

With `COc1ccc(-c2ccc(=O)n(CC(=O)NCc3ccccc3OC)n2)cc1` [IIIb-21], the IC50 lay in the range of 10 to 100 µM.

For the compound `COc1ccc(-c2ccc(=O)n(CC(=O)NC3CC3)n2)cc1` [IIIb-22, N-cyclopropyl-2-(3-(4-methoxyphenyl)-6-oxopyridazin-1(6H)-yl)acetamide], the IC50 lay in the range of 10 to 100 µM.

In turn, `COc1ccc(-c2ccc(=O)n(CC(=O)NC3CCCC3)n2)cc1` [IIIb-23, N-cyclopentyl-2-(3-(4-methoxyphenyl)-6-oxopyridazin-1(6H)-yl)acetamide] showed an IC50 of 10 to 100 µM.

Consider `O=C(Cn1nc(-c2ccc3c(c2)OCCCO3)ccc1=O)NC1CCCCCC1` [IIIb-24, N-cycloheptyl-2-(3-(3,4-dihydro-2H-benzo[b][1,4]dioxepin-7-yl)-6-oxopyridazin-1(6H)-yl)acetamide], for which the IC50 is 10 to 100 µM.

Consider `COc1ccc(-c2ccc(=O)n(CC(=O)Nc3cc(OC)ccc3OC)n2)cc1` [IIIb-25, N-(2,5-dimethoxyphenyl)-2-(3-(4-methoxyphenyl)-6-oxopyridazin-1(6H)-yl)acetamide], for which the IC50 lay within 10 to 100 µM.

In turn, `C[C@@H](NC(=O)Cn1nc(-c2ccc3c(c2)OCCCO3)ccc1=O)c1ccc(F)cc1` [IIIb-26, (R)-2-(3-(3,4-dihydro-2H-benzo[b][1,4]dioxepin-7-yl)-6-oxopyridazin-1(6H)-yl)-N-(1-(4-fluorophenyl)ethyl)acetamide] registered an IC50 of 10 to 100 µM.

With `COc1ccc(-c2ccc(=O)n(CC(=O)Nc3ncccc3C)n2)cc1` [IIIb-27, 2-(3-(4-methoxyphenyl)-6-oxopyridazin-1(6H)-yl)-N-(3-methylpyridin-2-yl)acetamide], the IC50 lay in the range of 10 to 100 µM.

For the compound `COc1ccc(-c2ccc(=O)n(CC(=O)Nc3ccc4c(c3)OCO4)n2)cc1` [IIIb-28, N-(benzo[d][1,3]dioxol-5-yl)-2-(3-(4-methoxyphenyl)-6-oxopyridazin-1(6H)-yl)acetamide], the IC50 is 10 to 100 µM.

`COc1ccc(-c2ccc(=O)n(CC(=O)NCC(C)C)n2)cc1` [IIIb-29, N-isobutyl-2-(3-(4-methoxyphenyl)-6-oxopyridazin-1(6H)-yl)acetamide]: the IC50 is 10 to 100 µM.

Compound `COc1ccc(-c2ccc(=O)n(CC(=O)NC(C)CCc3ccccc3)n2)cc1` (stereo not shown) [IIIb-30, 2-(3-(4-methoxyphenyl)-6-oxopyridazin-1(6H)-yl)-N-(4-phenylbutan-2-yl)acetamide] showed an IC50 of 10 to 100 µM.

The compound `COc1ccc(-c2ccc(=O)n(CC(=O)NCc3ccc(Cl)cc3)n2)cc1` [IIIb-31, N-(4-chlorobenzyl)-2-(3-(4-methoxyphenyl)-6-oxopyridazin-1(6H)-yl)acetamide] came in with an IC50 of 10 to 100 µM.

`COc1ccc(-c2ccc(=O)n(CC(=O)NCc3cccc(F)c3)n2)cc1` [IIIb-32, N-(3-fluorobenzyl)-2-(3-(4-methoxyphenyl)-6-oxopyridazin-1(6H)-yl)acetamide] returned an IC50 of 10 to 100 µM.

Regarding `COc1ccc(-c2ccc(=O)n(CC(=O)Nc3ccc4c(c3)OCO4)n2)c(F)c1` [IIIb-33, N-(benzo[d][1,3]dioxol-5-yl)-2-(3-(2-fluoro-4-methoxyphenyl)-6-oxopyridazin-1(6H)-yl)acetamide], the 50% inhibitory concentration (IC50) was 10 to 100 µM.

On to `COc1ccc(CNC(=O)Cn2nc(-c3ccc(OC)cc3)ccc2=O)cc1` [IIIb-34, N-(4-methoxybenzyl)-2-(3-(4-methoxyphenyl)-6-oxopyridazin-1(6H)-yl)acetamide], for which the IC50 was in the range of 10 to 100 µM.

Take `COc1ccc(-c2ccc(=O)n(CC(=O)Nc3ccc(Cl)cc3Cl)n2)c(F)c1` [IIIb-35, N-(2,4-dichlorophenyl)-2-(3-(2-fluoro-4-methoxyphenyl)-6-oxopyridazin-1(6H)-yl)acetamide]: the IC50 fell in the range of 10 to 100 µM.

`COc1ccc(-c2ccc(=O)n(CC(=O)NC(C)CCc3ccccc3)n2)c(F)c1` (stereo not shown) [IIIb-36, 2-(3-(2-fluoro-4-methoxyphenyl)-6-oxopyridazin-1(6H)-yl)-N-(4-phenylbutan-2-yl)acetamide] showed an IC50 of 10 to 100 µM.

On to `COc1ccc(-c2ccc(=O)n(CC(=O)NCc3ccco3)n2)cc1` [IIIb-37, N-(furan-2-ylmethyl)-2-(3-(4-methoxyphenyl)-6-oxopyridazin-1(6H)-yl)acetamide], for which the IC50 lay in the range of 10 to 100 µM.

In turn, `COc1ccc(-c2ccc(=O)n(CC(=O)NCc3ccccc3F)n2)cc1` [IIIb-38, N-(2-fluorobenzyl)-2-(3-(4-methoxyphenyl)-6-oxopyridazin-1(6H)-yl)acetamide] showed an IC50 of over 100 µM.

`COc1ccc(-c2ccc(=O)n(CC(=O)NC[C@@H]3CC4C=CC3C4)n2)cc1` (stereo partly drawn) [IIIb-39, N-(((2R)-bicyclo[2.2.1]hept-5-en-2-yl)methyl)-2-(3-(4-methoxyphenyl)-6-oxopyridazin-1(6H)-yl)acetamide] gave an IC50 of over 100 µM.

Consider `COc1ccc(-c2ccc(=O)n(CC(=O)NCc3ccccc3Cl)n2)cc1OC` [IIIb-40, N-(2-chlorobenzyl)-2-(3-(3,4-dimethoxyphenyl)-6-oxopyridazin-1(6H)-yl)acetamide], for which the IC50 is over 100 µM.

`COc1ccc(-c2ccc(=O)n(CC(=O)NC3CCCCC3)n2)cc1` [IIIb-41, N-cyclohexyl-2-(3-(4-methoxyphenyl)-6-oxopyridazin-1(6H)-yl)acetamide] came in with an IC50 of over 100 µM.

`CCOc1ccc(-c2ccc(=O)n(CCNC(=O)CC3CCCC3)n2)cc1` [IIIb-43, 2-cyclopentyl-N-(2-(3-(4-ethoxyphenyl)-6-oxopyridazin-1(6H)-yl)ethyl)acetamide] returned an IC50 of over 100 µM.
